For data set [1] the following is noted: cited from earlier work.
The test system of data set [2] is rats with adjuvant polyarthritis. The note with it: Demerson et al. 1983; cited from earlier work.
The test system of another data set is prostaglandin synthetase. The note with it: Demerson et al. 1983; cited from earlier work.
The conditions of data set [3]: cited from earlier work. The source holds these as a separate data set.
Data set [4] deals with transgenic adenocarcinoma mouse prostate (TRAMP) mouse. The data set is described as follows: TRAMP animal model: histopathological evaluation of the prostate (grade 1-6). The class given is in vivo. The note with it: for Overall Mean (staging of group): TRAMP mice; for Average mouse Staging: mean of lobe grades. Further details: key to Average mouse Staging / Overall Mean (staging of group) / Histopathological grade, Lateral prostate: histological grade on 1-6 scale of hyperplasia/neoplasia/carcinoma. How it is done:
(§1) The transgenic adenocarcinoma mouse prostate (TRAMP) mouse, was used to evaluate the effect of R-etodolac on prostate cancer progression. The etodolac was compounded into the diet at 312 ppm (low dose) and 1250 ppm (high dose) and the animals were treated for 18 weeks. At necoscopy, the urogenital system was removed and weighed. The prostate lobes, seminal vesicles, lungs, liver, and periaortic lymph nodes were preserved and sectioned for histological evaluation and graded on a 1-6 scale for degree of hyperplasia/neoplasia/carcinoma.

In another data set the test system is hyperplastic cells. The data set is described as follows: Activity against hyperplastic cells. Conditions: compared with S(+) enantiomer. The source says: The pharmacokinetics of etodolac have been extensively reviewed by D. R. Brocks et al., Clin. Pharmacokinet., 26, 259 (1994). Etodolac is marketed as the racemate.
Data set [5] deals with transgenic adenocarcinoma mouse prostate (TRAMP) mouse. The data set is described as follows: TRAMP animal model: average weight of dissected prostate lobes. The class given is in vivo. How it is done:
as §1

The mark [6] stands for this setting: after a 200 mg dose in six elderly patients.
The mark [7] stands for this setting: TRAMP mice treated with R-etodolac.
[8] abbreviates: TRAMP mice, High Dose (1250 ppm in diet), 18 weeks, average ± standard deviation.
[9] abbreviates: TRAMP mice, Low Dose (312 ppm in diet), 18 weeks, average ± standard deviation.

“And” between values parts separate entries of the source, which are not always exact repeats. Equal values may be shown once. Marks after values point to notes of the source that are not given here.

Turning to `CCc1cccc2c3c([nH]c12)C(CC)(CC(=O)O)OCC3` (racemic) [etodolac, 1,8-diethyl-1,3,4,9-tetrahydro[3,4-6]indole-1-acetic acid], in data set [1] (racemic mixture), the Elimination half-life is 6 to 8 h.

Turning to `CCc1cccc2c3c([nH]c12)[C@](CC)(CC(=O)O)OCC3` (single isomer, unassigned) [S(+)-enantiomer of etodolac, reference compound], the “Anti-inflammatory activity (reduction in paw volume)” value in data set [2] is “almost all of the anti-inflammatory activity of the racemate”. Further, the “Maximum concentration relative to R-enantiomer” value in data set [1] (setting [6]) is on record as 5 fold lower. In addition, the “Prostaglandin synthetase inhibitory activity” value with prostaglandin synthetase is recorded as “almost all”.

Regarding `CCc1cccc2c3c([nH]c12)[C@@](CC)(CC(=O)O)OCC3` [R-etodolac], in data set [2], the “Anti-inflammatory activity (reduction in paw volume)” value is recorded as “No anti-inflammatory activity was discernible”. For the same compound, in data set [3], the “Conversion to the S(+) enantiomer in vivo” value is on record as “not converted significantly”. Also, in data set [4] (setting [7]), the “Effects in any other tissues” value is “No other effects in any other tissues were observed” and the “Progression of the disease (histological analysis)” value is listed as “maintaining the animals in a pre-cancerous stage”. Further, in data set [4] (High dose group (1250 ppm in diet), 18 weeks, statistically significant from control group, p < 0.005), the “Overall Mean (staging of group)” value is on record as 3.3*. Further, the “Overall Mean (staging of group)” value in data set [4] (Low dose group (312 ppm in diet), 18 weeks) was 4.3. Besides, in data set [4] (individual TRAMP mice, High dose (1250 ppm in diet), 18 weeks), the “Average mouse Staging” value was 3.8 and 3.3 (3×) and 3.5 and 3.0. Further, the “Histopathological grade, Lateral prostate” value in data set [4] (individual TRAMP mice, Low dose (312 ppm in diet), 18 weeks, grade 1-6) turned out to be 3.5. For the same compound, the “Average mouse Staging” value in data set [4] (individual TRAMP mice, Low dose (312 ppm in diet), 18 weeks) is 4.0 (2×) and 5.5 and 3.6 and 4.5 and 6.0. The “Activity against hyperplastic cells” value in the data set on hyperplastic cells was “potent activity against hyperplastic cells that is at least equivalent to that of the S(+) enantiomer”. Further, in data set [5] (setting [8]), the “Average weigh (g) Anterior Prostate” value was 0.076 ± 0.012 g, the “Average weigh (g) Dorsal Prostate” value is listed as 0.053 ± 0.013 g, the “Average weigh (g) Lateral Prostate” value amounted to 0.016 ± 0.003 g and the “Average weigh (g) Ventral prostate” value is on record as 0.014 ± 0.001 g. Besides, in data set [5] (setting [8]), the “Total Weigh average” value was 0.160 ± 0.022 g. Moreover, in data set [5] (setting [9]), the “Average weigh (g) Anterior Prostate” value is 0.062 ± 0.033 g, the “Average weigh (g) Dorsal Prostate” value is reported as 0.062 ± 0.027 g, the “Average weigh (g) Lateral Prostate” value is reported as 0.015 ± 0.001 g and the “Average weigh (g) Ventral prostate” value amounted to 0.024 ± 0.017 g. Moreover, the “Overall size of the prostates” value in data set [5] (TRAMP mice, highest dose) is given as “reduction of the overall size of the prostates”. Besides, in data set [5] (treated mice compared to untreated mice), the “Overall size of the prostates” value is “reduces the overall size of the prostates”. In data set [1] (setting [6]), the Maximum plasma concentration result was “about 33 μM”. Besides, the “Plasma concentrations of R-enantiomer relative to S-enantiomer” value in data set [1] (in plasma after administration of RS-etodolac, Brocks et al. 1994) is “about 10 fold”.

These data come from US7211599B2, “Use of etodolac to treat hyperplasia” (The Regents of the University of California, priority 2002, dated 2007).
